# Assay results reported in ChEMBL document CHEMBL1201862, “PubChem BioAssay data set” (2004).
# Activity calls are given as the source filed them.
# Columns and labels:
# [1] = blockers of bursicon-stimulated LGR2 cAMP reporter – cell-based, HEK293, CRE-luciferase reporter, cherry pick, set 2, dose response (AID 743343); type: functional;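 also: transfected cells were stimulated with diluted bursicon conditioned medium after compound addition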
# [2] = blockade of melanocortin 4 receptor signaling – cell-based, plate reader, cherry pick, counter-screen for LGR2 antagonist project, dose response (AID 743444); type: functional;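 also: transfected HEK 293 cells stimulated with alpha-MSH peptide; potency of inhibitors of the alpha-MSH evoked signal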
# [3] = molecular target: SWI/SNF-related matrix-associated actin-dependent regulator of chromatin subfamily A member 2 (Homo sapiens, UniProt P51531); test: Luminescence-based cell-based high throughput dose response assay to identify activators of the function of SWI/SNF related, matrix associated, actin dependent regulator of chromatin, subfamily a, member 2 (SMARCA2, BRM).; type: functional
# Chain of SWI/SNF-related matrix-associated actin-dependent regulator of chromatin subfamily A member 2 (P51531 whole entry): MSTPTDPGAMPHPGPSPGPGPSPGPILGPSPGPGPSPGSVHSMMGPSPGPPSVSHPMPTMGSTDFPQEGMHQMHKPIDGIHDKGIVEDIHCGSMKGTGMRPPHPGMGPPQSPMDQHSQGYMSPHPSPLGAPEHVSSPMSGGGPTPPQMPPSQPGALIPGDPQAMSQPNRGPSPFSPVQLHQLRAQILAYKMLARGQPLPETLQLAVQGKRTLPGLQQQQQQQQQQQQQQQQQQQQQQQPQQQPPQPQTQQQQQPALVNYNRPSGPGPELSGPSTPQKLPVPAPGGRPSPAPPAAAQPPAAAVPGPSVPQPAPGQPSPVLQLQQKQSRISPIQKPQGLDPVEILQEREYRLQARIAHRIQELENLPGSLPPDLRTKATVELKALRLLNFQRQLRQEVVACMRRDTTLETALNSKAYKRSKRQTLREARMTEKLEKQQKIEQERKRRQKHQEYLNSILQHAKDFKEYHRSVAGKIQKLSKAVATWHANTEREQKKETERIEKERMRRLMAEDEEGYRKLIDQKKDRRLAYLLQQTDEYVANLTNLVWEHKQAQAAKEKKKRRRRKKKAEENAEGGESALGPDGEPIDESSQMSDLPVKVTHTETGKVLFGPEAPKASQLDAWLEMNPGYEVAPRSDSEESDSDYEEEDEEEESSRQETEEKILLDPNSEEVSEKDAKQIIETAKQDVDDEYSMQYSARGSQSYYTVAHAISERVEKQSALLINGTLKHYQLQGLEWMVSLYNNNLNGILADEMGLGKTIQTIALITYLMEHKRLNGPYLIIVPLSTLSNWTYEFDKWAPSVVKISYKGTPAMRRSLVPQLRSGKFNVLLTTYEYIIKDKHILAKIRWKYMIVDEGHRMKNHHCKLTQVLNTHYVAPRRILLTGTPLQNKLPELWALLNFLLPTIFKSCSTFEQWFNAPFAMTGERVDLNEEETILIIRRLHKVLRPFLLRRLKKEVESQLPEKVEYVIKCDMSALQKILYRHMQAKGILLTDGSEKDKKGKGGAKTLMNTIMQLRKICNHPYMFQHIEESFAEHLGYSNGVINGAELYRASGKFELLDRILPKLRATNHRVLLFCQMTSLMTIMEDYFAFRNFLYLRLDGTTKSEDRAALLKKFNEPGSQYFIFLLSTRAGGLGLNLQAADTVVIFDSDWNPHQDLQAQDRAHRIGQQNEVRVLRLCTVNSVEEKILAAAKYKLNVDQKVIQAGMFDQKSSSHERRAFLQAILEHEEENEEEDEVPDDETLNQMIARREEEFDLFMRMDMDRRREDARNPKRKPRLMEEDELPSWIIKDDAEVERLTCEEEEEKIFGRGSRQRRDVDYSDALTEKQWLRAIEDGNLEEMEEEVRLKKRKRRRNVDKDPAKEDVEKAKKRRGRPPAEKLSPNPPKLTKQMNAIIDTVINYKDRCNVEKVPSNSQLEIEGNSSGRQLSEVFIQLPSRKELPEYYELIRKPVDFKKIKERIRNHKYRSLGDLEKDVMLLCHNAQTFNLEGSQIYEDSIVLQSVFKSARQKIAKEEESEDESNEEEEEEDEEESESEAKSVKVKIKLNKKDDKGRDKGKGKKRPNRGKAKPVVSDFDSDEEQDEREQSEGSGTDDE
# [4] = molecular target: T1, Heat shock factor protein 1 (Mus musculus, UniProt P38532); test: enhancement of HSF1-driven luciferase signal – cell-based, NIH3T3, luminescence, dose retest, confirmation (AID 435004); type: functional;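 also: stress induced by proteasome inhibitor MG132 added 30 min after compound; luciferase reporter driven by HSF1 response element in NIH3T3 cells; actives raise luminescence as potentiators of the MG132 stress response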
# T1 sequence (P38532 whole entry): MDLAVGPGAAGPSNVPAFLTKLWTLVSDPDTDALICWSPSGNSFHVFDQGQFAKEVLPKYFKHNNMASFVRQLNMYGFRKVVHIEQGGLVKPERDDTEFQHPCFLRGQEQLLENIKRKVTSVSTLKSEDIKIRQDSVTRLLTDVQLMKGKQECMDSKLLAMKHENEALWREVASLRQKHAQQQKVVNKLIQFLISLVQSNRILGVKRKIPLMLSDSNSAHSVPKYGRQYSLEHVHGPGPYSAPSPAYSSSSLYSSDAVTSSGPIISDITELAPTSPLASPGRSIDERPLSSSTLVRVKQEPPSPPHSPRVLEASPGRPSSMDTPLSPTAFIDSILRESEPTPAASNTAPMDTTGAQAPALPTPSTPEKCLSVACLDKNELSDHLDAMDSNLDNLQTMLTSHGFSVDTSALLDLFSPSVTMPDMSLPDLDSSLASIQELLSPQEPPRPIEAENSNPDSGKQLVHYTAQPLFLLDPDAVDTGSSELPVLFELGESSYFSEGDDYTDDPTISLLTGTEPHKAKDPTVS
# [5] = Counterscreen for activators of the function of SWI/SNF related, matrix associated, actin dependent regulator of chromatin, subfamily a, member 2 (SMARCA2, BRM): Luminescence-based cell-based high throughput dose response assay to identify non-selective compounds using the VP16 reporter assay.; type: functional
# [6] = molecular target: Paired box protein Pax-8 (Homo sapiens, UniProt Q06710); test: PAX8 transcriptional activity inhibition in RMG-I – RMG-I cells, luciferase, cherry-pick, dose response (AID 687027); type: functional, cell-based;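 also: luciferase reporter driven by Pax8 target thyroperoxidase promoter measured by SteadyGlo luminescence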
# Chain of Paired box protein Pax-8 (Q06710 whole entry): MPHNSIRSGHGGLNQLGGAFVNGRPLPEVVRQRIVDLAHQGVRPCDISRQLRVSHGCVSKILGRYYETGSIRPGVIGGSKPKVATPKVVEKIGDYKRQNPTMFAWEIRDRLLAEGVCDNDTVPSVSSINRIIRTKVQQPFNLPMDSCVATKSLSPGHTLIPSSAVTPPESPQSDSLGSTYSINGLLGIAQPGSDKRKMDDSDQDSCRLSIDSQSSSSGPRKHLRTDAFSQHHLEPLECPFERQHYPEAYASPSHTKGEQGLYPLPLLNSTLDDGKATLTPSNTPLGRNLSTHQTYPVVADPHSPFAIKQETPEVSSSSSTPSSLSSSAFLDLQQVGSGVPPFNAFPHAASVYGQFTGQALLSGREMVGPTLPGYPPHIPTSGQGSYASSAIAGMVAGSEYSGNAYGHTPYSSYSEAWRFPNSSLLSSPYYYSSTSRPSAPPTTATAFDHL
# [7] = molecular target: Ras and Rab interactor 1/Tyrosine-protein kinase ABL1 (Homo sapiens, UniProt P00519+Q13671); type: functional;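 also: biochemical TR-FRET dose-response test measuring inhibition of binding between Rin1 and Abl proteins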
# Chain of Ras and Rab interactor 1/Tyrosine-protein kinase ABL1 (P00519 whole entry): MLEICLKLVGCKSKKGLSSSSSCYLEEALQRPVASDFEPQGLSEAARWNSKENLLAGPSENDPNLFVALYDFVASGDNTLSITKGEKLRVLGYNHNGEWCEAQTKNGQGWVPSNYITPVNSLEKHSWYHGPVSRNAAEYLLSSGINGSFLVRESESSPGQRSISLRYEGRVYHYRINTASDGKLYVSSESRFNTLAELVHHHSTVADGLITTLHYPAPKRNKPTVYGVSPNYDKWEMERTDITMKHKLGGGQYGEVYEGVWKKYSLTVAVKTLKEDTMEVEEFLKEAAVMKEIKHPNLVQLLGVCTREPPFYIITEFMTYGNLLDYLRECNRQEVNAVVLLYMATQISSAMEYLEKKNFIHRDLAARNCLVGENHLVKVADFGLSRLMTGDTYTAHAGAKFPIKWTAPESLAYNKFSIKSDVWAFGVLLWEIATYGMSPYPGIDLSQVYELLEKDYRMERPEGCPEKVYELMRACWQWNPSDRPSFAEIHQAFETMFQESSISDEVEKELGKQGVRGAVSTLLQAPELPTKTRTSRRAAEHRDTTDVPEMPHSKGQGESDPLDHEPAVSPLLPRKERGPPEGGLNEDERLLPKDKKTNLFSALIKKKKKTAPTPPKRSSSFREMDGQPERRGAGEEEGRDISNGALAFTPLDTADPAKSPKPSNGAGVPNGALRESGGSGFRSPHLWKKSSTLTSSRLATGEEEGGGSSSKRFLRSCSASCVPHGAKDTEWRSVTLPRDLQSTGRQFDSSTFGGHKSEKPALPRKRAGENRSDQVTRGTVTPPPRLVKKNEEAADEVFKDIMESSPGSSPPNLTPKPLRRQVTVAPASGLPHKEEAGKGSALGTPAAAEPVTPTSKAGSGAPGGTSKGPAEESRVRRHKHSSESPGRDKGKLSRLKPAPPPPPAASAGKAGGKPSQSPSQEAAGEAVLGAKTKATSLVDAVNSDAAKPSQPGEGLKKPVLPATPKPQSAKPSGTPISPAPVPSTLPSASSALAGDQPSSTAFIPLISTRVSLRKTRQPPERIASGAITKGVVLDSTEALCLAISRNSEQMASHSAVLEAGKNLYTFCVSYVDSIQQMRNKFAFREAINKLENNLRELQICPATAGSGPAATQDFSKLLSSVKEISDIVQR
# Chain of Ras and Rab interactor 1/Tyrosine-protein kinase ABL1 (Q13671 whole entry): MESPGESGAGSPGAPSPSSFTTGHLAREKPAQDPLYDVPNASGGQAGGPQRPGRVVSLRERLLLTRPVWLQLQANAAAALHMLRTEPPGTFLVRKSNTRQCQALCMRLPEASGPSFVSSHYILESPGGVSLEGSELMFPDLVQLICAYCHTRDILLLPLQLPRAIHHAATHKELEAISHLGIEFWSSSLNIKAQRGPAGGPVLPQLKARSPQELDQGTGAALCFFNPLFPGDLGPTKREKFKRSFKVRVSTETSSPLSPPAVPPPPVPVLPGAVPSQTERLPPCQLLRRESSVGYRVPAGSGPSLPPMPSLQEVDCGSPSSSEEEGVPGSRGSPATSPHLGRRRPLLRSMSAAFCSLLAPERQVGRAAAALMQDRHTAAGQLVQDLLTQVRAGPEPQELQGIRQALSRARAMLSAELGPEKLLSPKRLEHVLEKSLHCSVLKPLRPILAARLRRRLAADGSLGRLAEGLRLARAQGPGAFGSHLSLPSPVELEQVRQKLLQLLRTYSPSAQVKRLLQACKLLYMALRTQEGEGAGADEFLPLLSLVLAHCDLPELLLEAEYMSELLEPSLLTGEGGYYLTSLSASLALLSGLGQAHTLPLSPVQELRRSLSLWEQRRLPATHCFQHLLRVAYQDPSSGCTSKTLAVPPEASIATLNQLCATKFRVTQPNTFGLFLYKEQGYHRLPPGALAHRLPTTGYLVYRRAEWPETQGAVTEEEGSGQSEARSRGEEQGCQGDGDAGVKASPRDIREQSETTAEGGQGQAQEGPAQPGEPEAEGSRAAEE
# [8] = general cell-killing toxicity readout – plate reader, dry powder samples, cytotoxicity control for PAX8 inhibitor project, dose response (AID 743021); type: functional, cell-based
# [9] = A549 cell cytotoxicity, dose response, cytotoxicity control, plate reader, cherry-pick, antagonist series (AID 743412); type: functional, cell-based
# [10] = non-specific 3'UTR reporter inhibition in Clone20-Shn3RL – cell-based, Renilla luciferase, cherry-picked, counter-screen for Shn3 inhibitor project, dose response (AID 624133); type: functional
# [11] = reduction of Shn3 3'UTR-driven luciferase in osteoblasts – cell-based, Clone20 osteoblasts, firefly luciferase, cherry-picked, dose response (AID 624132); type: functional;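 also: firefly luciferase luminescence from reporter carrying the Shn3 3'UTR in osteoblasts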
# [12] = viability loss in HEK293 cells – cell-based, plate reader, cherry-picked samples, cytotoxicity control, dose response (AID 743446); type: functional
# [13] = loss of viability in HepG2 cells – cell-based, CellTiter-Glo, cherry-picked, cytotoxicity control for Shn3 inhibitor project, dose response (AID 624134); type: functional
# [14] = toxicity toward HepG2 liver cells – cell-based, plate reader, cherry-pick, antagonist series, cytotoxicity control, dose response (AID 743416); type: functional
# [15] = test system: HEK293; test: viability loss in HEK293T cells – cell-based, ATP luminescence, cherry-pick samples, cytotoxicity control, dose response (AID 687005); type: functional; settings: Homo sapiens;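 also: cells exposed to compound for 48 hours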
# [16] = HEK293 Cytotoxicity Assay Measured in Cell-Based System Using Plate Reader - 7071-01_Inhibitor_Dose_CherryPick_Activity_Set2.; type: functional
# [17] = molecular target: T2, RNA-editing ligase 1, mitochondrial (Trypanosoma brucei brucei, UniProt P86926); test: inhibition of trypanosome RNA editing ligase – biochemical, fluorescence, Trypanosoma brucei, dose response (AID 1117295); type: functional
# T2 sequence (P86926 whole entry): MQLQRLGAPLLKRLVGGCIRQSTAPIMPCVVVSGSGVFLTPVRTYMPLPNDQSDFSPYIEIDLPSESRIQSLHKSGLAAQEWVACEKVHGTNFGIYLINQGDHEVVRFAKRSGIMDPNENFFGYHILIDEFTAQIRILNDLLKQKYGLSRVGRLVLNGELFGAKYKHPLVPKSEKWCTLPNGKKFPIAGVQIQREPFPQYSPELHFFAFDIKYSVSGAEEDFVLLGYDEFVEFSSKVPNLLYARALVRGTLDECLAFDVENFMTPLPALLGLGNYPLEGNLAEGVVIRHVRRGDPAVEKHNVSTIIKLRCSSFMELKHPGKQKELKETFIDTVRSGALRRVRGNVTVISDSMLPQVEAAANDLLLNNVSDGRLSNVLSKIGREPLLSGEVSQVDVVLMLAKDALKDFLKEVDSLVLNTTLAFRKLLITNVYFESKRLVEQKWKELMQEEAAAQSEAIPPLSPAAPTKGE
structure (smiles),measurement,setting,value
O=C(Nc1ccc(N2CCN(C(=O)c3ccc(Cl)cc3)CC2)cc1)c1cc2ccccc2o1,AC50,[1],29.4 µM (active)
same,AC50,[2],28.6 µM (active)
Cc1cc(C)nc(Sc2nc(Cl)nc(N(c3ccccc3)c3ccccc3)n2)n1,EC50,[3],> 91.1 µM (inactive)
same,EC50,[4],> 260 µM (inactive)
same,EC50,[5],> 91.1 µM (inactive)
OCC1OC(n2cnc3c(NCc4ccccc4O)ncnc32)C(O)C1O (stereo unspecified),AC50,[6],0.759 µM (active)
same,IC50,[7],> 24.5 µM (inactive)
same,AC50,[8],4.79 µM (active)
CCCCNc1c(-c2ccc(OC)c(SC3CCCCC3)c2)nc2ccc(C)cn12,AC50,[9],22.1 µM (active)
same,AC50,[10],2.14 µM (active)
same,AC50,[11],3.68 µM (active)
same,AC50,[12],15.5 µM (active)
same,AC50,[1],7.85 µM (active)
same,AC50,[13],45 µM (active)
same,AC50,[14],18.4 µM (active)
same,AC50,[2],9.94 µM (active)
O=C(C[C@@H]1CC[C@@H]2[C@H](COC[C@@H](O)CN2C(=O)Nc2ccc(Cl)cc2)O1)NC1Cc2ccccc2C1,AC50,[15],25.2 µM (active)
same,AC50,[16],25.2 µM (active)
C[C@@H]1CCCCO[C@H](CN(C)C(=O)Nc2ccc(F)cc2)[C@H](C)CN([C@@H](C)CO)C(=O)c2cc(NS(=O)(=O)c3ccc(Cl)cc3)ccc2O1,AC50,[15],21.9 µM (active)
same,AC50,[16],21.9 µM (active)
COC(=O)C1=C(C)N(Cc2ccccc2C(F)(F)F)C(NCc2cccc(C(F)(F)F)c2)=NC1c1ccc(C(F)(F)F)cc1 (stereo unspecified),IC50,[17],> 96.6 µM (inactive)
